Assay results from publication PMC12174747, “Ligand Screening and Discovery Using Cocktail Soaking and Automated Microcrystal Electron Diffraction” (Chemmedchem, 2025).
pKd: −log10 of the molar value. Counter-ions that a name gives are not always drawn. Like-named read-outs stand apart in the source and are kept apart here.

Assays:
thermolysin = molecular target: T1, thermolysin (Bacillus thermoproteolyticus, UniProt P00800); assay: MicroED crystal structure (cocktail and individual soaking) and microscale thermophoresis; type: binding
T1 construct: gene npr
T1 sequence (P00800 233-548): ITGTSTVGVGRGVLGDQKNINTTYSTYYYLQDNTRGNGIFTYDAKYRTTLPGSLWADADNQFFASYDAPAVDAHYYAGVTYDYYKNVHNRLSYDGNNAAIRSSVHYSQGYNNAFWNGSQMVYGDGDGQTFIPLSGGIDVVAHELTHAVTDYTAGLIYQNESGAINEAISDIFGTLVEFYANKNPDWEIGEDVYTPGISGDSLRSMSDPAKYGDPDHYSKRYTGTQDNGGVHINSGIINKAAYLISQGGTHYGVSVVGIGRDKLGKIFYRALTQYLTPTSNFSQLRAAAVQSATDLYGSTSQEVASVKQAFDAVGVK

proteinase K = molecular target: T2, proteinase K (Parengyodontium album, UniProt P06873); assay: as above; type: binding
T2 construct: gene PROK
T2 sequence (P06873 106-384): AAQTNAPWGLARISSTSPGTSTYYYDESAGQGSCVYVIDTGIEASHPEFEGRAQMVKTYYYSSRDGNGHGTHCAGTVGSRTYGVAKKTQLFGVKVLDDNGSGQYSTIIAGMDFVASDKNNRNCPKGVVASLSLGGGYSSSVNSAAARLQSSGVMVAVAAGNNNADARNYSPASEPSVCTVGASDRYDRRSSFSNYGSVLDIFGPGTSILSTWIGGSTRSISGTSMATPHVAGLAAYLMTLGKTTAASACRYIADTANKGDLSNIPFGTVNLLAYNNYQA

Molecule: CC(C)C[C@H](NP(=O)(O)O[C@@H]1O[C@@H](C)[C@H](O)[C@@H](O)[C@H]1O)C(=O)N[C@@H](Cc1c[nH]c2ccccc12)C(=O)O [compound 1, phosphoramidon disodium salt]
- pKd (thermolysin): 6.46

Molecule: O=C(O)CNC(=O)C(CS)Cc1ccccc1 (stereo not drawn) [compound 2, thiorphan]
- pKd (thermolysin; read-out: Kd): 5.40

Molecule: benzenesulfonyl fluoride hydrochloride [compound 4]
- pKd (proteinase K): 3.59
